Data from patent US20240366577A1, “CONTROLLED LONG-TERM DRUG DELIVERY AND METHODS THEREOF” (THE JOHNS HOPKINS UNIVERSITY, priority 2021, published 2024).
Like-named read-outs stand apart in the source and are kept apart here.

Legend:
[1] = tested on: foreign body and immune rejection responses to implanted biomedical devices; conditions: non-human primates; cited from earlier work
[2] = tested on: foreign body and immune rejection responses to implanted biomedical devices; conditions: rodents; cited from earlier work
[3] = in vitro release under accelerated release conditions; assay type: physicochemical; conditions: 37° C., PBS+0.3% SDS, 2.9 mg drug, 12-day time course; amorphous vs 50 μm vs 150-200 μm crystals
Description: After crystals visibly stopped precipitating or growing, the vessel was submerged in an ultrasonic water bath for 10-30 seconds to dislodge crystals from the vessel sidewall and break them into more a uniform size distributions, either smaller fines, for example 50 μm, or between 150-200 μm, as measured by brightfield and scanning electron microscopy, shown in FIGS. 2A-2B. Resultant product was then removed from the supernatant mother solution, dried, weighed, and stored for later use. On average, yielded crystal was approximately 40% of the starting powder. Furthermore, methods exist to quantify solubilized material, typically using optics to identify changes in light transmittance, and enabled testing of crystal stability in a range of aqueous solutions. […] To simulate cumulative drug release over time, all 3 mL supernatant volumes were removed and replaced with completely fresh release media at desired times of 1 hr, 4 hr, 6 hr, 8 hr, 10 hr, 1 day, 2 days, 5 days, 7 days, 10 days and 12 days, and 200 μL aliquots were measured in individual wells of a 96-well plate at 266 nm to determine solubilize sorafenib release, as shown in FIG. 2D.
Release studies were carried out under accelerated conditions in PBS with 0.3% w/v SDS in 1X PBS. […] Drug concentration in samples was measured using a UV-calibrated Tecan infinite M200 PRO. […]

[4] = SD rats; cited from earlier work
4T1 = conditions: 20-60 mg/kg dosing; cited from earlier work
tumor endothelial CD31 = assay: immunofluorescent staining of tumors: CD31; assay type: in vivo, BALB/c mice; conditions: daily bolus IP 25 mg/kg/day
Experimental: (§1) To confirm the effects seen at the level of RNA, immunofluorescent staining of excised tumor samples that were in parallel fixed with paraformaldehyde and embedded in paraffin was performed. […] Co-localization of CD31 with aSMact was, as expected, not linked in crystal sorafenib-treated tumors, where CD31 reduction was more extensive than with daily, bolus sorafenib.
(§2) Immunofluorescence imaging was used to determine anti-angiogenic drug efficacy. Tumor tissues were retrieved from mice and fixed overnight using 4% paraformaldehyde at 4° C. After fixation, retrieved tissue samples were moved to 70% ethanol. Samples were then processed for paraffin embedding, sectioning and staining. […] Next, tissues were incubated for 1 hour in an immunostaining cocktail solution consisting of NucBlue (Thermo), specific marker probes (1:200 dilution) anti-CD31 (Cat#DIA-310, HistoBioTec) and anti-alphaSmoothMuscle actin-Cy3 (Sigma) in Dako staining buffer. For CD31, a goat anti-rat alexa-fluor647 secondary antibody was also used (1:400). After staining, samples were rinsed again with 1X PBS three times prior to slides being cover slipped with Pro-long anti-fade Gold (Thermo). […] For stain quantification, images were converted into 8-bit image files, a background threshold was determined using NIH ImageJ, and then all images were processed using an NIH ImageJ macro to quantify the area of positive stain. […]

MDA-MB-231 = conditions: 30 mg/kg bodyweight daily oral, cited from earlier work
[5] = tested on: macrophage Cd68 and myeloid Cd11b; assay: qPCR of retrieved tumors: immune markers; assay type: in vivo, BALB/c mice; conditions: daily IP bolus 25 mg/kg BW/day
4T1 tumors = assay: orthotopic parent 4T1 TNBC tumor growth; assay type: in vivo, BALB/c mice; conditions: daily IP bolus 25 mg/kg BW/day, dissolved in ~60% DMSO
Experimental: Namely, 4T1 tumors were treated with either PBS (PBS CONTROL), intraperitoneal (IP) bolus sorafenib (25 mg/kg BW/day) (IP BOLUS), 3 mg IP injected sorafenib crystals (IP CRYSTAL 3 MG), or sorafenib crystals (3 mg: SC CRYSTAL (3 MG); 10 mg: SC CRYSTAL (10 MG)) injected around developed tumors in the subcutaneous (SC) mammary fatpad. Furthermore, to truly test the utility of crystalline sorafenib in treating such an aggressive TNBC model, treatment was carried out retrospectively and only started once tumor volumes reached ˜225-250 mm^3. A positive control liquid-dissolved and daily injected drug treatment group was included, where mice were dosed with a daily bolus of 25 mg sorafenib/kg of mouse BW. […] This may be supported by our prior observation that in the IP compartment, where there is higher 10 liquid turnover as compared to the SC space, crystalline drugs usually have a faster kinetic of release over time.
4T1 or 4T1-luc2 cells were trypsinized using 0.25% Trypsin-EDTA, then diluted with the appropriate complete culture media and spun in a centrifuge at 300 g for 5 min. The supernatant was aspirated, and the pellet was re-suspended in serum-free RPMI 1640. The solution was centrifuged again, and the supernatant aspirated. Re-suspension, centrifugation, and aspiration was repeated once more. 5 mL of RPMI-1640 was then added to the pellet. 10 μL of the cell suspension was removed and mixed with 10 μL of Trypan blue stain 0.4% (ThermoFisher). Cells were counted with a Countess automated cell counter. Cell solutions were centrifuged one more time, the supernatant aspirated, and the pellet resuspended in the amount of RPMI-1640 required to achieve a concentration of 5×10^5 cells/200 μL of media. Tumor cells were then administered orthotopically in naive (and anesthetized) BALB/c mice into the right inguinal mammary fat pad 21 with 200 μL aliquots of the cell suspension, using an insulin syringe. Tumors were measured externally using a digital caliper, and volume was calculated (!″* (length * height) *−length * height). Except in the 4T1-luc2 trial, treatment began once tumors reached an average volume of 220-250 mm3. Experimental end point was deemed when solid tumors reached a volume of no more than 2000 mm3. Tumors were extracted and harvested, half stored in 4% paraformaldehyde diluted from 32% (Cat#50980495, Electron Microscopy Services) with DI H2O, and half frozen in liquid nitrogen, then stored at −80° C.
Once tumors had reached an average volume of ˜220-250 mm^3, mice were administered either subcutaneously or intraperitoneally with 3 or 10 mg of crystalline sorafenib, diameter ˜150-200 μm, suspended in 200 μL of sterile saline using an 18 g needle. […]

[6] = body weight of treated tumor-bearing mice; assay type: in vivo, BALB/c mice; conditions: daily 25 mg/kg bolus in ~60% DMSO solvent solution
Experimental: However, due to the highly hydrophobic nature of sorafenib, its daily 25 mg/kg bolus dosing regimen required regular used of a solvent solution made up of ˜60% of the strong organic solvent dimethylsulfoxide (DMSO). […] In stark contrast, no DMSO was required for delivery of sorafenib crystals, for which instead simply utilized ˜100-200 μl of saline to inject into the desired IP or SC tissue sites.
Once tumors had reached an average volume of ˜220-250 mm^3, mice were administered either subcutaneously or intraperitoneally with 3 or 10 mg of crystalline sorafenib, diameter ˜150-200 μm, suspended in 200 μL of sterile saline using an 18 g needle. As a control, mice (n=4) were dosed with sorafenib dissolved at a concentration of 4 mg/mL in a solution of 65% DMSO (remainder DPBS). Mice were dosed either subcutaneously or intraperitoneally with a bolus of 25 mg drug per kg of bodyweight (BW), daily. As a secondary control, mice were dosed with the 65% DMSO/PBS vehicle to monitor changes in body score based on the vehicle alone.

caspase-3/7 = assay: Caspase-Glo 3/7 of tumor lysates; assay type: in vivo, BALB/c mice; conditions: daily bolus regimen; tumors at end of study
Experimental: as §1
Caspase activity was determined using the Caspase-Glo 3/7 assay kit and the manufacturer's protocol, with the following modifications. Protein samples (prepared by sonication probe in NP40 lysis buffer (Cat#FNN0021, Thermo)+Halt protease inhibitor cocktail (Cat#78425, Thermo)) were prepared in a 96-well plate following BCA assay (Cat#23225, Pierce/Thermo) protein quantification ([…] in 50 μl) were incubated with 50 μl of reconstituted caspase 3/7 substrate. After a brief shaking, the plate was incubated at room temperature for 1 hr and luciferase activity was determined using a BioTek Synergy 2 plate reader (Biotek; Winooski, VT).

[7] = tested on: alpha Smooth Muscle actin (aSMact); assay: immunofluorescent staining of tumors: aSMact; assay type: in vivo, BALB/c mice; conditions: daily bolus IP 25 mg/kg/day
Experimental: as §1, §2

For `COc1ccc(COc2ccc(Cc3cnc(N)nc3N)cc2OC)cc1` [GW2580], which “duration of suppression of foreign body and immune rejection responses” value [1] is on record?
The value was no less than 6 months.

What about the “duration of suppression of foreign body and immune rejection responses” value [2] of the same compound?
Its value is “over 1.3 years”.

For `CNC(=O)c1cc(Oc2ccc(NC(=O)Nc3ccc(Cl)c(C(F)(F)F)c3)cc2)ccn1` [amorphous (powder) sorafenib, sorafenib], which “release of solubilized sorafenib (cumulative)” value [3] is on record?
Its value is “fastest release”.

For `CO[C@H]1C[C@@H]2CC[C@@H](C)[C@@](O)(O2)C(=O)C(=O)N2CCCC[C@H]2C(=O)O[C@H]([C@H](C)C[C@@H]2CC[C@@H](O)[C@H](OC)C2)CC(=O)[C@H](C)/C=C(\C)[C@@H](O)[C@@H](OC)C(=O)[C@H](C)C[C@H](C)/C=C/C=C/C=C/1C` [crystalline rapamycin, rapamycin], which “inflammatory activity / biocompatibility” value [4] is on record?
Its value is “no inflammatory activity”.

With `CNC(=O)c1cc(Oc2ccc(NC(=O)Nc3ccc(Cl)c(C(F)(F)F)c3)cc2)ccn1` [sorafenib] as the compound, how does the “effects on tumor growth” value (4T1) read?
Its value is “negligible effects”.

What about the “recruitment/polarization of CD206+ F4/80+ M2 macrophages” value (4T1) of the same compound?
Its value is “higher recruitment/polarization”.

And the “tumor endothelial CD31 levels (immunofluorescence)” value (tumor endothelial CD31)?
Its value is “significant reduction”.

And the tumor reduction (MDA-MB-231; after 9 days)?
Its tumor reduction is 42%.

What about the angiogenic inhibition (MDA-MB-231) of the same compound?
The angiogenic inhibition was “significant angiogenic inhibition”.

What about the “Cd68 and Cd11b expression levels (qPCR)” value [5] of the same compound?
Its value is “no significant changes”.

What about the tumor volumes (4T1 tumors) of the same compound?
Its tumor volumes is “slight dip in tumor volumes”.

And the body weight loss [6]?
Its body weight loss is 15-20%.

And the “apoptotic index (caspase-3/7 levels in tumor lysates)” value (caspase-3/7)?
The value was “significantly increased”.

What about the “tumor aSMact levels (immunofluorescence)” value [7] of the same compound?
The value was “significant reduction”.
